The nature of series [1]: Surfactant evaluation under shear stress (vortex 800 rpm 4 h): visual, turbidity, SEC-HPLC. It counts as physicochemical. To be noted: for effect of surfactant on IL-10 delivery construct forms (SEC-HPLC): 1xPBS, before/after vortexing. As for the experimental part:
Following vortexing, the solution was visually inspected. The sample without a surfactant was slightly hazy while the samples with the surfactant were clear after vortexing. The turbidity (340-360 nm) of the solution was assessed after vortexing.
SEC-HPLC was carried out on the IL-10 delivery construct formulations before (FIG. 93) and after (FIG. 94) vortexing (TABLE 48).
For orientation: In gel filtration, larger molecules generally elute earlier.

Series [2] has as its system growth factors, chemokines and cytokines. It counts as in vivo, mice. The settings on record: mouse, in vivo.
Series [3] can be described thus: Single oral capsule dose in NHP: plasma caffeine by LC-MS/MS. In kind it is in vivo, Macaca fascicularis. On the procedure: In order to quantitate plasma caffeine levels, an LC-MS/MS detection system was employed. A 25-μL matrix aliquot was fortified with 25 μL of 2.00 μg/mL caffeine-trimethyl-^13C3 internal standard working solution. Analytes were isolated through supported liquid extraction (SLE). A portion of the eluate was transferred and evaporated under a nitrogen stream at approximately 45° C., and the remaining residue reconstituted with 500 μL of water/acetonitrile (95:5, v/v). The final extract was analyzed via HPLC with MS/MS detection using positive ion electrospray and reverse phase chromatography. Caffeine concentration was determined using similarly run calibration controls.
IL-10 delivery construct dosing at multiple fixed doses in non-naïve adult male Macaca fascicularis was conducted by Valley Biosystems (West Sacramento, Calif.). […] Dosing groups are described in TABLE 45.

Series [4] concerns STAT3. In words: pSTAT3 induction and hIL-10 in intestinal tissue 40 min after oral gavage, immunofluorescence and image analysis. It counts as in vivo, rat. To be noted: 40 min post oral gavage. On the procedure: This observation is consistent with findings in mice that intestinal epithelial cells can express IL-10 receptors at their apical surface under certain conditions associated with development and maintenance of barrier function. […] In order to quantify how test articles affected intestinal IL-10 signal transduction pathways, image analysis was performed: high-throughput image batches were collected, segmented by epithelial versus lamina propria localization, and then by cellular features.

A further series deals with IL-1Ra. In words: Systemic IL-1Ra in non-inflamed mice (ELISA MSD). The settings on record: construct 10 mg/kg; rhIL-10 3 mg/kg; oral. It counts as in vivo. A general note: An ELISA detects its analyte on a solid surface through an enzyme-linked reagent.
The target in the next series is T1, IL-10RA and IL-10RB (Homo sapiens, UniProt Q08334+Q13651).
T1 sequence (Q13651 22-578): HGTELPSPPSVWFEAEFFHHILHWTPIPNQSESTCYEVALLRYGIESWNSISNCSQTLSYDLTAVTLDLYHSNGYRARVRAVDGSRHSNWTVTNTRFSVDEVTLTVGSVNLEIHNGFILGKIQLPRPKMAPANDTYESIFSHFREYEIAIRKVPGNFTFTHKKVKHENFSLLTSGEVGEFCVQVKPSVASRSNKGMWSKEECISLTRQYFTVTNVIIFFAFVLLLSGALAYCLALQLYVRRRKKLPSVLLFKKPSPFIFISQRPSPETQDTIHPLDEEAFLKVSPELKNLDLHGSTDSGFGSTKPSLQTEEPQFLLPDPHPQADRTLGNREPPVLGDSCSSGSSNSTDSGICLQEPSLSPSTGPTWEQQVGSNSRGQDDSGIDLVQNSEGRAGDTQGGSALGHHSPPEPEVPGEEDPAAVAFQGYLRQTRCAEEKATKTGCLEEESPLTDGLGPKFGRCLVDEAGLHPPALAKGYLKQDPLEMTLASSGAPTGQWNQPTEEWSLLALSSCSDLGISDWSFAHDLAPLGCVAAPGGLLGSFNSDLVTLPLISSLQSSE
T1 sequence (Q08334 20-325): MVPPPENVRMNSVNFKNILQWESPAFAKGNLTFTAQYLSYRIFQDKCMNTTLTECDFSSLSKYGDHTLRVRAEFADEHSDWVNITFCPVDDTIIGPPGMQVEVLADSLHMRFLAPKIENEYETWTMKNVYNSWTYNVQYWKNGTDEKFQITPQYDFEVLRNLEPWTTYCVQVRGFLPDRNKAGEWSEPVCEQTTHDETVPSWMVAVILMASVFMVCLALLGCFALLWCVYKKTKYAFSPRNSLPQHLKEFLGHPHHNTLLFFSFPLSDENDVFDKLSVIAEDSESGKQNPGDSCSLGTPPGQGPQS
In words: IL-10 receptor dimerization luminescence assay in engineered U2OS cells. The settings on record: 6 h.

Series [5] deals with STAT3. As to the kind of experiment: STAT3 phosphorylation in J774.2 macrophage cells.
Series [6] can be described thus: Intraluminal injection in T-cell transfer model: rhIL-10 ELISA in intestinal tissue and serum. In kind it is in vivo, BALB/c and SCID mice. The settings on record: intraluminal injection. On the procedure: This study was conducted to examine the potential for the carrier protein to transport rhIL-10 from the intestinal lumen into the submucosal region in inflamed intestinal tissue. The T lymphocyte (T cell) transfer model was used as it is a well-established model of induced chronic colitis in mice and presents many of the essential immunological hallmarks observed in IBD patients. Nine BALB/c mice and twelve SCID mice, including nine with the colitis-like model of inflammation, were dosed with 20 μl of test article via intraluminal injection into the distal ileum and the proximal, middle and distal colon. […] In each group, two mice were terminated 10 minutes after intraluminal injections, and one was terminated 40 minutes after intraluminal injections. Intestinal tissue and serum were collected. Collected tissue was fixed, embedded, sectioned and H&E stained for histological assessment of inflammatory status. ELISA analysis to measure rhIL 10 was performed on lysates prepared from intestinal tissue and serum (FIGS. 106A-106D).

Series [7] concerns STAT3. As to the kind of experiment: pSTAT3/total STAT3 in colon tissue of non-inflamed mice (ELISA MSD). To be noted: construct 1 mg/kg; rhIL-10 0.9 mg/kg; oral. It counts as in vivo.

The Cmax is the maximum level reached in the sampled fluid or tissue. By Tmax is commonly meant the time at which the peak concentration occurs. One may read the EC50 as the concentration that produces a half-maximal response.

polysorbate 20: the “absorbance in the 340-360 nm range after vortexing” value in [1] (0.1% in 1xPBS) is given as “increase in absorbance was also observed”. For the same molecule, the “effect of surfactant on IL-10 delivery construct forms (SEC-HPLC)” value in series [1] was “most amount of monomer before vortexing”.

Take `Nc1ccc(O)c(C(=O)O)c1` [5-ASA, 5-aminosalicylic acid, reference compound]: in series [2], the “oxazolone-induced increase in plasma GCSF/CSF3” value was “attenuated”.

Turning to polysorbate 80, the “effect of surfactant on IL-10 delivery construct forms (SEC-HPLC)” value in series [1] is “increase in HMW aggregates and monomers”.

`Cn1c(=O)c2c(ncn2C)n(C)c1=O` [caffeine]: the “time at which absorption of caffeine was observable (capsule opening)” value in [3] (all doses) is reported as 2-3 hours post dose. Moreover, the Cmax came out at 1350 ng/mL in series [3] (male, cynomolgus monkey, plasma, po, 1 mg dosing group, 1x10 mg caffeine); 800 ng/mL in series [3] (male, cynomolgus monkey, plasma, po, 20.5 mg dosing group, 1x10 mg caffeine); 3790 ng/mL in [3] (male, cynomolgus monkey, plasma, po, 82 mg dosing group, 4x10 mg caffeine); 6120 ng/mL in series [3] (male, cynomolgus monkey, plasma, po, 4x10 mg caffeine). Besides, the Tmax in [3] (male, cynomolgus monkey, plasma, po, all doses) was 4 h.

Turning to “rhIL-10: recombinant human IL-10, commercial preparation, comparator [reference compound]”, the “hIL-10 and pSTAT3 in intestinal tissue” value in the series with STAT3 [4] is given as “exhibited pSTAT3 induction in enterocytes but not in cells within the lamina propria”. In addition, the “increase of systemic IL-1Ra” value with IL-1Ra is on record as “did not significantly increase”. The EC50 with IL-10RA and IL-10RB (read-out: EC50, IL-10R dimerization) is 0.0915 nM. Further, the “amplitude of pSTAT3/total STAT3” value in the series with STAT3 [5] amounted to 2.19%. For the same molecule, the “rhIL-10 in serum of inflamed animals” value in series [6] is recorded as “minimal amounts of rhIL-10 were detected”. In addition, the “increase in ratio of pSTAT3 to total STAT3” value in the series on STAT3 [7] is listed as “did not significantly alter”.

B1: cholix derived carrier: truncated non-toxic cholix variant of 386 amino acids, carrier alone (protein)
chain: VEEALNIFDECRSPCSLTPEPGKPIQSKLSIPSDVVLDEGVLYYSMTINDEQNDIKDEDKGESIITIGEFATVRATRHYVNQDAPFGVIHLDITTENGTKTYSYNRKEGEFAINWLVPIGEDSPASIKISVDELDQQRNIIEVPKLYSIDLDNQTLEQWKTQGNVSFSVTRPEHNIAISWPSVSYKAAQKEGSRHKRWAHWHTGLALCWLVPMDAIYNYITQQNCTLGDNWFGGSYETVAGTPKVITVKQGIEQKPVEQRIHFSKGNAMSALAAHRVCGVPLETLARSRKPRDLTDDLSCAYQAQNIVSLFVATRILFSHLDSVFTLNLDEQEPEVAERLSDLRRINENNPGMVTQVLTVARQIYNDYVTHHPGLTPEQTSAGAQA
As to B1, in the series with IL-10RA and IL-10RB, the “EC50, IL-10R dimerization” value is recorded as “did not induce IL-10R dimerization”.

Values taken from US11160869B2 (priority 2019, dated 2021).
